Biological target: T1, recombinant IL-8 Rb, or Type II, receptor (permissive receptor) (Homo sapiens, UniProt P25025)
T1 construct: expressed in transfected cells; host or cells: Chinese hamster ovary (CHO) cells, membranes
T1 sequence (P25025 1-360): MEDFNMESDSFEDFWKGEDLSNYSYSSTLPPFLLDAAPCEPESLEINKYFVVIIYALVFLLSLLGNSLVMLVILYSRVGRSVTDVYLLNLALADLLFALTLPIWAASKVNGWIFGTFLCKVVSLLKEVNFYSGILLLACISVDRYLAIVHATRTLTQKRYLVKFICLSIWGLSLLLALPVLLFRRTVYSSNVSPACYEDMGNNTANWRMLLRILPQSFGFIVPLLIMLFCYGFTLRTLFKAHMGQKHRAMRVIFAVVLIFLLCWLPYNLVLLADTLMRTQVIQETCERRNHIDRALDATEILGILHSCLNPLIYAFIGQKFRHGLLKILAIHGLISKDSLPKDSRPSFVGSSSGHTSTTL
Assay: IL-8 receptor binding assay, permissive model (125I IL-8 / 125I Gro-a, CHO membranes)
Details: recombinant human IL-8Rb membranes from Chinese hamster ovary cells; 125I IL-8 (0.25 nM) or 125I Gro-a; 1 hour at room temperature
Text: [^125 I] IL-8 (human recombinant) is obtained from Amersham Corp., Arlington Heights, Ill., with specific activity 2000 Ci/mmol. Gro-a is obtained from NEN-New England Nuclear. All other chemicals are of analytical grade. High levels of recombinant human IL-8 type a and b receptors were individually expressed in Chinese hamster ovary cells as described previously (Holmes, et al., Science, 1991, 253, 1278). The Chinese hamster ovary membranes were homogenized according to a previously described protocol (Haour, et al., J Biol Chem., 249 pp 2195-2205 (1974)). Except that the homogenization buffer is changed to 10 mM Tris-HCL, 1 mM MgSO4, 0.5 mM EDTA (ethylene-diaminetetra-acetic acid), 1 mMPMSF (a-toluenesulphonyl fluoride), 0.5 mg/L Leupeptin, pH 7.5. Membrane protein concentration is determined using Pierce Co. micro-assay kit using bovine serum albumin as a standard. All assays are performed in a 96-well micro plate format. Each reaction mixture contains ^125 I IL-8 (0.25 nM) or ^125 I Gro-a and 0.5 μg/mL of IL-8Ra or 1.0 μg/mL of IL-8Rb membranes in 20 mM Bis-Trispropane and 0.4 mM Tris HCl buffers, pH 8.0, containing 1.2 mM MgSO4, 0.1 mM EDTA, 25 mM NaCl and 0.03% CHAPS. […] The filter is then dried and counted on the Betaplate liquid scintillation counter. […]

- IC50 in the permissive models for IL-8 receptor inhibition: < 50 µg/mL
SMILES: N#Cc1ccc(NC(=C[N+](=O)[O-])Nc2ccccc2Br)c(O)c1 [Example 1, 1-Nitro-2-[2-hydroxy-4-cyanophenylamino]-2-[2-bromophenylamino]ethylene]
